For experiment [1], the system named is CYPIR. Put plainly: Example V post-emergence field trials in direct-seeded rice. In kind it is in vivo, Cyperus iria. As to conditions: foliar, field trial Tolima, Colombia. The method, then: (§1) Multiple field trials were conducted under commercial grower field conditions in Tolima, Colombia; Thessaloniki, Greece; Bianze and Copiano, Italy; and Humphrey, Ark., USA. Trials sites were located in commercially grown fields of direct-seeded rice (Oryza sativa) using standard herbicide small plot research methodology. Plots varied from 2 to 3 meter (m)×5 to 8 m (width×length) with 4 replicates per treatment. The rice crop was grown using normal cultural practices for fertilization, seeding, watering, flooding and maintenance to ensure good growth of the crop and the weeds.
(§2) All treatments in the field trials were applied using a backpack compressed air/gas sprayer with flat fan nozzles (80° or 110°) calibrated to apply 187 to 300 L/ha spray volume at approximately 200-400 kPa nozzle pressure. Commercially available products of cyhalofop-butyl (Clincher 180EC, Clincher 200EC, and Clincher SF (285 gr ai/L EC)) were mixed in water at appropriate formulated product rates to achieve the desired rates based on a unit area of application (hectare) to achieve the desired rates as shown. Treatments were rate at 19 to 58 days after application (DAA) as compared to the untreated control plants. Visual weed control was scored on a scale of 0 to 100 percent where 0 corresponds to no injury and 100 corresponds to complete kill. […]

Experiment [2] has as its system CYPDI. Described as above. As to conditions: foliar, field trial Greece. In kind it is in vivo, Cyperus difformis. The method, then:
as §1, §2

Experiment [3] relates to SCPMU. Described as above. The class given is in vivo, Schoenoplectus mucronatus. The settings on record: foliar, field trial Italy. The protocol:
as §1, §2

Experiment [4] relates to SEBEX. The experiment is described as above. The class given is in vivo, Sesbania exaltata. The settings on record: foliar, field trial Humphrey, Arkansas, USA. The protocol: as §1
All treatments in the field trials were applied using a backpack compressed air/gas sprayer with flat fan nozzles (80° or 110°) calibrated to apply 187 to 300 L/ha spray volume at approximately 200-400 kPa nozzle pressure. Commercially available products of cyhalofop-butyl (Clincher 180EC, Clincher 200EC, and Clincher SF (285 gr ai/L EC)) were mixed in water at appropriate formulated product rates to achieve the desired rates based on a unit area of application (hectare) to achieve the desired rates as shown. […] Visual weed control was scored on a scale of 0 to 100 percent where 0 corresponds to no injury and 100 corresponds to complete kill.
All treatment results, both for the single product and mixtures, are an average of 4 replicates. The trial sites had naturally occurring populations of weeds. The weed spectrum included, but was not limited to, rice flatsedge (Cyperus iria, CYPIR); smallflower umbrellaplant (Cyperus difformis, CYPDI), junglerice (Echinochloa colona, ECHCO), barnyardgrass (Echinochloa crus-galli, ECHCG); multiple Echinochloa species in the same field (ECHSS), grasslike fimbristylis (Fimbristylis miliacea, FIMMI); ricefield bulrush (Schoenoplectus mucronatus, SCPMU) and hemp Sesbania (Sesbania exaltata, SEBEX). All synergistic interactions were significant at the […] level.

For experiment [5], the system named is FIMMI. Put plainly: Example VI in-water applied ternary mixtures, greenhouse, transplanted paddy rice weeds. The class given is in vivo, Fimbristylis miliacea (L.) Vahl. The gist of the method:
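Compound A (SC, acid-equivalent basis) alone or with cyhalofop-R-butyl or metamifop plus a third herbicide, injected into paddy water of greenhouse-grown transplanted rice and weeds at 1st–4th leaf stage (~29/26 °C). Visual injury scored 0–100% after ~3 weeks vs untreated; expected mixture effects by Colby's equation.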

Turning to `COc1c(Cl)ccc(-c2nc(C(=O)OCc3ccccc3)c(Cl)c(N)c2F)c1F` [Compound A Benzyl Ester, benzyl ester of 4-amino-3-chloro-5-fluoro-6-(4-chloro-2-fluoro-3-methoxy-phenyl)pyridine-2-carboxylic acid], in experiment [1] (12 gae/ha), the “Visual Weed Control (%) - 19 DAA CYPIR Obs” value was determined as 69%. Besides, in experiment [2] (24 gae/ha), the “Visual Weed Control (%) - 55-58 DAA CYPDI Obs” value is 81%. Moreover, the “Visual Weed Control (%) - 55-58 DAA SCPMU Obs” value in experiment [3] (24 gae/ha) is recorded as 27%. The “Visual Weed Control (%) - 7 DAA SEBEX Obs” value in experiment [4] (24 gae/ha) came to 80%; in experiment [4] (32 gae/ha), 78%. The “Visual Weed Control (%) - 21 DAA FIMMI Obs” value in experiment [5] (1.09 gae/ha) is reported as 8%; in experiment [5] (1.09 gae/ha, first set) it was 8%; in experiment [5] (2.19 gae/ha), 33%; in experiment [5] (2.19 gae/ha, first set), 33%; in experiment [5] (4 gae/ha, second set), 62%. The “Visual Weed Control (%) - 24 DAA FIMMI Obs” value in experiment [5] (4 gae/ha) is recorded as 0%; in experiment [5] (8 gae/ha) it was 50%; in experiment [5] (16 gae/ha) it was 30%; in experiment [5] (Table 67, 4 gae/ha, 24 DAA), 0%; in experiment [5] (Table 67, 8 gae/ha, 24 DAA) it was 50%; in experiment [5] (Table 67, 16 gae/ha, 24 DAA), 30%.

On to `CCCCOC(=O)[C@@H](C)Oc1ccc(Oc2ccc(C#N)cc2F)cc1` [Cyhalofop-butyl, butyl(2R)-2-[4-(4-cyano-2-fluorophenoxy)phenoxy]propanoate, reference compound], for which the “Visual Weed Control (%) - 19 DAA CYPIR Obs” value in experiment [1] (280 gai/ha) turned out to be 0%. The “Visual Weed Control (%) - 55-58 DAA CYPDI Obs” value in experiment [2] (300 gai/ha) was determined as 0%. Also, in experiment [3] (300 gai/ha), the “Visual Weed Control (%) - 55-58 DAA SCPMU Obs” value turned out to be 6%. In addition, in experiment [4] (280 gai/ha), the “Visual Weed Control (%) - 7 DAA SEBEX Obs” value was determined as 0%. Also, the “Visual Weed Control (%) - 21 DAA FIMMI Obs” value in experiment [5] (22.5 gai/ha) is reported as 33%; in experiment [5] (22.5 gai/ha, second set), 0%; in experiment [5] (45 gai/ha), 0%; in experiment [5] (45 gai/ha, first set) it was 0%; in experiment [5] (45 gai/ha, second set) it was 0%. The “Visual Weed Control (%) - 24 DAA FIMMI Obs” value came to 0% in experiment [5] (90 gai/ha); 20% in experiment [5] (180 gai/ha); 20% in experiment [5] (Table 67, 180 gai/ha, 24 DAA).

The values above are taken from patent US9232796B2, “Herbicidal compositions comprising 4-amino-3-chloro-5-fluoro-6-(4-chloro-2-fluoro-3-methoxyphenyl) pyridine-2-carboxylic acid or a derivative thereof and acetyl-CoA carboxylase (ACCase) inhibitors” (DOW AGROSCIENCES LLC, priority 2012, dated 2016).
